Laboratory results taken from paper PMC3600725 (CPT: Pharmacometrics & Systems Pharmacology, 2013).
“Also recorded” adds a separate entry of the source. Read-outs that look alike come from different tables or passages of the source. Each block holds one molecule with its values, some of them ahead of it.

Assays:
MRP2 = MRP2 (Homo sapiens, UniProt Q92887); conditions: 50 µmol/l MK571; cited from earlier work
[1] = Estimated portal vein concentration of ritonavir; parameters: species or system human
[2] = tested on: human sandwich-cultured hepatocytes (SCH); assay: Accumulation, BEI and in vitro clearance in human SCH; assay type: in vitro ADME
[3] = cited from earlier work
[4] = assay type: in vivo, human
[5] = cited from earlier work; remark: listed apart in the source
[6] = 2 × 300 mg oral ritonavir 14 and 2 h before, mean ± SD, n = 3
[7] = ^99mTc–mebrofenin alone (control), mean ± SD, n = 8
[8] = from human SCH data, well-stirred model, mean ± SD of n=3 donors

Chain of MRP2 (Q92887 whole entry): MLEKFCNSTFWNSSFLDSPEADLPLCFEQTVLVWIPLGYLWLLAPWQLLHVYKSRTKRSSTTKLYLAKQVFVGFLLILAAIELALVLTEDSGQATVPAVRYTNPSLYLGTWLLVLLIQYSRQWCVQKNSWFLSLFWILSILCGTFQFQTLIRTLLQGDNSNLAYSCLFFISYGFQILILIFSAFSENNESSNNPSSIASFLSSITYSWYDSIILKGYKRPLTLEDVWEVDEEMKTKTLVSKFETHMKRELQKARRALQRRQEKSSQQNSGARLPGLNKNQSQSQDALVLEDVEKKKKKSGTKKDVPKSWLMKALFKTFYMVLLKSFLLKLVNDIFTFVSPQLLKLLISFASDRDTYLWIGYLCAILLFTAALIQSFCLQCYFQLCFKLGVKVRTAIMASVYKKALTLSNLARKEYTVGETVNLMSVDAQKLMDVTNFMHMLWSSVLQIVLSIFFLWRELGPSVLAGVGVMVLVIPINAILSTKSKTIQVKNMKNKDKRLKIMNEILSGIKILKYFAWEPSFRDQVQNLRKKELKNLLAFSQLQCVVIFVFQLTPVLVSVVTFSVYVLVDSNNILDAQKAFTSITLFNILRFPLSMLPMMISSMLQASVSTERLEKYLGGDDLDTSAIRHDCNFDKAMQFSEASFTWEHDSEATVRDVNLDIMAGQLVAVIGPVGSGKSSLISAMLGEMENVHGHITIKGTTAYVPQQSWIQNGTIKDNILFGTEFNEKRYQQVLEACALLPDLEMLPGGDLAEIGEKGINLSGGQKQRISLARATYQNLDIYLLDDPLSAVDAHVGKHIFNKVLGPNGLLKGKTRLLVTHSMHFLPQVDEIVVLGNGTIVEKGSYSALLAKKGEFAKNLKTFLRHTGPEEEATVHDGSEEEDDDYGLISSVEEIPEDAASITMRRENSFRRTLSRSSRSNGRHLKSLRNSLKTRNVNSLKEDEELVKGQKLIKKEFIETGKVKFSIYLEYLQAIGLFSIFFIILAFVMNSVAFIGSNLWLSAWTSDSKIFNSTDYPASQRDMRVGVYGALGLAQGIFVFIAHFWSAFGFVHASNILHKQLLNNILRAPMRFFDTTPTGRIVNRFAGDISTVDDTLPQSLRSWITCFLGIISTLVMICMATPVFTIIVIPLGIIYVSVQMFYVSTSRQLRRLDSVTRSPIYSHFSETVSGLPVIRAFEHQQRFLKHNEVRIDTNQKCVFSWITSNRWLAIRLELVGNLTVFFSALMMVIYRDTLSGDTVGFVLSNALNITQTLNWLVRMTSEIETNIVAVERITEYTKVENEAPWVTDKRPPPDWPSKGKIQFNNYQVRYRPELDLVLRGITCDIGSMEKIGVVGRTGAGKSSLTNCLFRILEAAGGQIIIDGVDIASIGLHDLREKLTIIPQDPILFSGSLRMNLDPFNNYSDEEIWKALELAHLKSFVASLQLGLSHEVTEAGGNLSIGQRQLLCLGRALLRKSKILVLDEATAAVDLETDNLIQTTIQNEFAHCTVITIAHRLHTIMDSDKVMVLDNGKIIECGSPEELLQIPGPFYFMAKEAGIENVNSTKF

SMILES: CN(C)C(=O)CCSC(SCCC(=O)O)c1cccc(/C=C/c2ccc3ccc(Cl)cc3n2)c1 (stereo not shown) [MK571]
Reduction of ATP-dependent transport of ^99mTc–mebrofenin (MRP2 vesicles) (MRP2): 88 ± 2%

Maximum estimated portal vein concentration [1]: up to 45 µmol/l | Total cellular accumulation of ritonavir (Ccell,total) ([2]; human SCH): up to 100 µmol/l
SMILES: CC(C)c1nc(CN(C)C(=O)N[C@H](C(=O)N[C@@H](Cc2ccccc2)C[C@H](O)[C@H](Cc2ccccc2)NC(=O)OCc2cncs2)C(C)C)cs1 [Ritonavir]

AUC0–∞ (blood) [4, 6]: 4,464 ± 1,861 nCi·min/ml | Biliary recovery [4, 6]: 72 ± 2 % Dose | Biliary recovery ([4]; 2 h after single 200 mg oral ritonavir, mean ± SD, n = 7): 59 ± 11 % Dose | AUC0–∞ (blood) [4, 7]: 1,970 ± 311 nCi·min/ml | Biliary recovery [4, 7]: 75 ± 12 % Dose | CLbiliary [4, 7]: 12.5 ± 2.5 mL/min/kg | Urinary recovery ([4]; all groups, unaffected by ritonavir treatment): ~ 1 % of the administered dose | Hepatic extraction ratio (CLtotal/Qh) ([4]; control subjects, mean ± SD): 0.80 ± 0.16 | CLbiliary, Predicted In Vivo Clearance [2, 8]: 4.4 ± 1.5 mL/min/kg | CLuptake, Predicted In Vivo Clearance [2, 8]: 10.6 ± 3.1 mL/min/kg | In vitro intrinsic CLuptake lower than semi-PBPK CLuptake,h ([2]; human SCH vs Table 2 estimate): ~ 50 fold | CLuptake, In Vitro Intrinsic Clearance ([2]; human SCH, mean ± SD of n=3 donors): ~ 24 mL/min/kg
SMILES: Cc1cc(C)c(NC(=O)CN(CC(=O)[O-])CC(=O)[O-])c(C)c1Br.Cc1cc(C)c(NC(=O)CN(CC(=O)[O-])CC(=O)[O-])c(C)c1Br.[99Tc+4] [^99mTc–mebrofenin, ^99mTechnetium–mebrofenin]
Hepatic extraction, previous reports [3]: ~ 100% | Change in AUCblood,0-∞ (systemic exposure) ([4]; 2 × 300 mg ritonavir as compared with control): significantly greater, by approximately twofold; also recorded: twofold increase | Hepatic elimination half-life, previous reports [5]: ~ 15 min | Time of maximum liver concentration, reported value [5]: 11 min
